Values quoted from earlier work in patent publication US20170313932A1, “SYNTHETIC ACID COMPOSITIONS ALTERNATIVES TO CONVENTIONAL ACIDS IN THE OIL AND GAS INDUSTRY” (FLUID ENERGY GROUP LTD., priority 2014, published 2017).

Tested on: Life and Health

Cl [Hydrogen chloride gas, Hydrogen chloride]
Level Immediately Dangerous to Life and Health (IDHL): above 50 PPM
Level at which death can occur (gas exposure, death in 2-3 minutes): 1300-2000 parts per million (PPM)
